Laboratory results: ChEMBL document CHEMBL3632573, “Triazine as a promising scaffold for its versatile biological behavior” (Eur J Med Chem, 2015)

Target: Histone deacetylase
Assay: Inhibition of HDAC (unknown origin)
Format: protein assay, Homo sapiens

IC50: < 200 nM
SMILES: Nc1nc(NCc2ccc(C(=O)Nc3ccccc3N)cc2)nc(NC2CCCC2)n1
